Results: publication PMC10008561 (Nature Communications, 2023)
Values joined by “and” are separate entries in the source; they are usually repeats but may differ in a detail not shown here. Equal entries are not always repeated.

Legend:
Experiment in all cases: cell-based
human KOR (Gi2) [1] = target: T1, human KOR (Gi2) (Homo sapiens, UniProt P41145, Y139L)
T1 construct: expressed in transfected cells; host or cells: HEK293T

human KOR (Gi2) [2] = target: T2, human KOR (Gi2) (Homo sapiens, UniProt P41145, K227A)
T2 construct: expressed in transfected cells; host or cells: HEK293T
T2 sequence (P41145 whole entry K227A): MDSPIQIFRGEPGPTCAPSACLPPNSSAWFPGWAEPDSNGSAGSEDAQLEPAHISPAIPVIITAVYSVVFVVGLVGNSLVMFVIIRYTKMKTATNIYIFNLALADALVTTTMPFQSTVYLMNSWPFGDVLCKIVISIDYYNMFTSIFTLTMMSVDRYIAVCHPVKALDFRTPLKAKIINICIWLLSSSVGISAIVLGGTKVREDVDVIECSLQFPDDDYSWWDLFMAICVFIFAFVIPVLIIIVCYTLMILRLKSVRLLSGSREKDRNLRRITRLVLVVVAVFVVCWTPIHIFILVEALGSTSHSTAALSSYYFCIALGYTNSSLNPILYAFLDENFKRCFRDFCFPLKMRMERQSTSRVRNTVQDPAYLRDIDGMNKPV

human KOR (Gi2) [3] = target: T3, human KOR (Gi2) (Homo sapiens, UniProt P41145, N141A)
T3 construct: expressed in transfected cells; host or cells: HEK293T
T3 sequence (P41145 whole entry N141A): as the sequence (P41145 whole entry K227A) above, with N141A, A227K counted along it

human KOR (Gi2) [4] = target: T4, human KOR (Gi2) (Homo sapiens, UniProt P41145, E297A)
T4 construct: expressed in transfected cells; host or cells: HEK293T
T4 sequence (P41145 whole entry E297A): as the sequence (P41145 whole entry K227A) above, with A227K, E297A counted along it

human KOR (Gi2) [5] = target: T5, human KOR (Gi2) (Homo sapiens, UniProt P41145, R271A)
T5 construct: expressed in transfected cells; host or cells: HEK293T
T5 sequence (P41145 whole entry R271A): as the sequence (P41145 whole entry K227A) above, with A227K, R271A counted along it

human KOR (Gi2) [6] = target: T6, human KOR (Gi2) (Homo sapiens, UniProt P41145, L253A)
T6 construct: expressed in transfected cells; host or cells: HEK293T
T6 sequence (P41145 whole entry L253A): as the sequence (P41145 whole entry K227A) above, with A227K, L253A counted along it

human KOR (Gi2) [7] = target: T7, human KOR (Gi2) (Homo sapiens, UniProt P41145, Y320L)
T7 construct: expressed in transfected cells; host or cells: HEK293T
T7 sequence (P41145 whole entry Y320L): as the sequence (P41145 whole entry K227A) above, with A227K, Y320L counted along it

human KOR (Gi2) [8] = target: T8, human KOR (Gi2) (Homo sapiens, UniProt P41145, D334A)
T8 construct: expressed in transfected cells; host or cells: HEK293T
T8 sequence (P41145 whole entry D334A): as the sequence (P41145 whole entry K227A) above, with A227K, D334A counted along it

human KOR (Gi2) [9] = target: T9, human KOR (Gi2) (Homo sapiens, UniProt P41145)
T9 construct: expressed in transfected cells; host or cells: HEK293T
T9 sequence (P41145 whole entry): as the sequence (P41145 whole entry K227A) above, with A227K counted along it

human KOR (Gi2) [10] = target: T10, human KOR (Gi2) (Homo sapiens, UniProt P41145, F283A)
T10 construct: expressed in transfected cells; host or cells: HEK293T
T10 sequence (P41145 whole entry F283A): as the sequence (P41145 whole entry K227A) above, with A227K, F283A counted along it

human KOR (Gi2) [11] = target: T11, human KOR (Gi2) (Homo sapiens, UniProt P41145, D155A)
T11 construct: expressed in transfected cells; host or cells: HEK293T
T11 sequence (P41145 whole entry D155A): as the sequence (P41145 whole entry K227A) above, with D155A, A227K counted along it

human KOR (Gi2) [12] = target: T12, human KOR (Gi2) (Homo sapiens, UniProt P41145, N326A)
T12 construct: expressed in transfected cells; host or cells: HEK293T
T12 sequence (P41145 whole entry N326A): as the sequence (P41145 whole entry K227A) above, with A227K, N326A counted along it

human KOR (Gi2) [13] = target: T13, human KOR (Gi2) (Homo sapiens, UniProt P41145, G319L)
T13 construct: expressed in transfected cells; host or cells: HEK293T
T13 sequence (P41145 whole entry G319L): as the sequence (P41145 whole entry K227A) above, with A227K, G319L counted along it

human KOR (Gi2) [14] = target: T14, human KOR (Gi2) (Homo sapiens, UniProt P41145, T94V)
T14 construct: expressed in transfected cells; host or cells: HEK293T
T14 sequence (P41145 whole entry T94V): as the sequence (P41145 whole entry K227A) above, with T94V, A227K counted along it

human KOR (Gi2) [15] = target: T15, human KOR (Gi2) (Homo sapiens, UniProt P41145, R257A)
T15 construct: expressed in transfected cells; host or cells: HEK293T
T15 sequence (P41145 whole entry R257A): as the sequence (P41145 whole entry K227A) above, with A227K, R257A counted along it

human KOR (Gi2) [16] = target: T16, human KOR (Gi2) (Homo sapiens, UniProt P41145, R170A); conditions: HEK-293T
T16 construct: expressed in transfected cells; host or cells: HEK293T
T16 sequence (P41145 whole entry R170A): as the sequence (P41145 whole entry K227A) above, with R170A, A227K counted along it

human KOR (Gi2) [17] = target: T17, human KOR (Gi2) (Homo sapiens, UniProt P41145, K200A)
T17 construct: expressed in transfected cells; host or cells: HEK293T
T17 sequence (P41145 whole entry K200A): as the sequence (P41145 whole entry K227A) above, with K200A, A227K counted along it

human KOR (Gi2) [18] = target: T18, human KOR (Gi2) (Homo sapiens, UniProt P41145, D266A)
T18 construct: expressed in transfected cells; host or cells: HEK293T
T18 sequence (P41145 whole entry D266A): as the sequence (P41145 whole entry K227A) above, with A227K, D266A counted along it

human KOR (Gi2) [19] = target: T19, human KOR (Gi2) (Homo sapiens, UniProt P41145, Q115N)
T19 construct: expressed in transfected cells; host or cells: HEK293T
T19 sequence (P41145 whole entry Q115N): as the sequence (P41145 whole entry K227A) above, with Q115N, A227K counted along it

human KOR (Gi2) [20] = target: T20, human KOR (Gi2) (Homo sapiens, UniProt P41145, F114L)
T20 construct: expressed in transfected cells; host or cells: HEK293T
T20 sequence (P41145 whole entry F114L): as the sequence (P41145 whole entry K227A) above, with F114L, A227K counted along it

human KOR (Gi2) [21] = target: T21, human KOR (Gi2) (Homo sapiens, UniProt P41145, N322A)
T21 construct: expressed in transfected cells; host or cells: HEK293T
T21 sequence (P41145 whole entry N322A): as the sequence (P41145 whole entry K227A) above, with A227K, N322A counted along it

human KOR (Gz) [22] = target: T22, human KOR (Gz) (Homo sapiens, UniProt P41145, N326A)
T22 construct: expressed in transfected cells; host or cells: HEK293T
T22 sequence (P41145 whole entry N326A): as the sequence (P41145 whole entry K227A) above, with A227K, N326A counted along it

human KOR (Gz) [23] = target: T23, human KOR (Gz) (Homo sapiens, UniProt P41145, R271A)
T23 construct: expressed in transfected cells; host or cells: HEK293T
T23 sequence (P41145 whole entry R271A): as the sequence (P41145 whole entry K227A) above, with A227K, R271A counted along it

human KOR (Gz) [24] = target: T24, human KOR (Gz) (Homo sapiens, UniProt P41145, D334A)
T24 construct: expressed in transfected cells; host or cells: HEK293T
T24 sequence (P41145 whole entry D334A): as the sequence (P41145 whole entry K227A) above, with A227K, D334A counted along it

human KOR (Gz) [25] = target: T25, human KOR (Gz) (Homo sapiens, UniProt P41145, D155A); conditions: HEK-293T
T25 construct: expressed in transfected cells; host or cells: HEK293T
T25 sequence (P41145 whole entry D155A): as the sequence (P41145 whole entry K227A) above, with D155A, A227K counted along it

human KOR (Gz) [26] = target: T26, human KOR (Gz) (Homo sapiens, UniProt P41145, K227A)
T26 construct: expressed in transfected cells; host or cells: HEK293T
T26 sequence (P41145 whole entry K227A): as the sequence (P41145 whole entry K227A) above

human KOR (Gz) [27] = target: T27, human KOR (Gz) (Homo sapiens, UniProt P41145, D105A)
T27 construct: expressed in transfected cells; host or cells: HEK293T
T27 sequence (P41145 whole entry D105A): as the sequence (P41145 whole entry K227A) above, with D105A, A227K counted along it

human KOR (Gz) [28] = target: T28, human KOR (Gz) (Homo sapiens, UniProt P41145, N322A)
T28 construct: expressed in transfected cells; host or cells: HEK293T
T28 sequence (P41145 whole entry N322A): as the sequence (P41145 whole entry K227A) above, with A227K, N322A counted along it

human KOR (Gz) [29] = target: T29, human KOR (Gz) (Homo sapiens, UniProt P41145, D266A)
T29 construct: expressed in transfected cells; host or cells: HEK293T
T29 sequence (P41145 whole entry D266A): as the sequence (P41145 whole entry K227A) above, with A227K, D266A counted along it

human KOR (Gz) [30] = target: T30, human KOR (Gz) (Homo sapiens, UniProt P41145, R170A)
T30 construct: expressed in transfected cells; host or cells: HEK293T
T30 sequence (P41145 whole entry R170A): as the sequence (P41145 whole entry K227A) above, with R170A, A227K counted along it

human KOR (Gz) [31] = target: T31, human KOR (Gz) (Homo sapiens, UniProt P41145, N141A)
T31 construct: expressed in transfected cells; host or cells: HEK293T
T31 sequence (P41145 whole entry N141A): as the sequence (P41145 whole entry K227A) above, with N141A, A227K counted along it

human KOR (Gz) [32] = target: T32, human KOR (Gz) (Homo sapiens, UniProt P41145, K200A)
T32 construct: expressed in transfected cells; host or cells: HEK293T
T32 sequence (P41145 whole entry K200A): as the sequence (P41145 whole entry K227A) above, with K200A, A227K counted along it

human KOR (Gz) [33] = target: T33, human KOR (Gz) (Homo sapiens, UniProt P41145, F283A)
T33 construct: expressed in transfected cells; host or cells: HEK293T
T33 sequence (P41145 whole entry F283A): as the sequence (P41145 whole entry K227A) above, with A227K, F283A counted along it

T1 sequence (P41145 whole entry Y139L): as the sequence (P41145 whole entry K227A) above, with Y139L, A227K counted along it

For CN(C(=O)/C=C/c1ccoc1)[C@@H]1CC[C@@]2(O)[C@H]3Cc4ccc(O)c5c4[C@@]2(CCN3CC2CC2)[C@H]1O5 [Nalfurafine, nalfurafine], the “FC vs wild type” value (human KOR (Gi2) [1]) was 1, the “FC vs wild type” value (human KOR (Gi2) [2]) was 1 and the Emax (human KOR (Gi2) [2]; HEK-293T) was 101%. The “FC vs wild type” value (human KOR (Gi2) [3]) was 7, the Emax (human KOR (Gi2) [3]; HEK-293T) was 103% and the “FC vs wild type” value (human KOR (Gi2) [4]) was 2. The Emax (human KOR (Gi2) [4]; HEK-293T) was 106%, the “FC vs wild type” value (human KOR (Gi2) [5]) was 112 and the Emax (human KOR (Gi2) [5]; HEK-293T) was 106%. The “FC vs wild type” value (human KOR (Gi2) [6]) was 87 and 100, the Emax (human KOR (Gi2) [6]; HEK-293T) was 105% and the “FC vs wild type” value (human KOR (Gi2) [7]) was 186. For the same compound, the Emax (human KOR (Gi2) [7]; HEK-293T) was 89.3%, the “FC vs wild type” value (human KOR (Gi2) [8]) was 269 and the Emax (human KOR (Gi2) [8]; HEK-293T) was 86.1%. The Emax% (human KOR (Gi2) [9]) was 101%, the “FC vs wild type” value (human KOR (Gi2) [9]) was 1 and the Emax (human KOR (Gi2) [9]; HEK-293T) was 101%. For the same compound, the “FC vs wild type” value (human KOR (Gi2) [10]) was 7, the Emax (human KOR (Gi2) [10]; HEK-293T) was 79% and the “FC vs wild type” value (human KOR (Gi2) [11]) was 20 and < 10. The Emax (human KOR (Gi2) [11]; HEK-293T) was 82%, the “FC vs wild type” value (human KOR (Gi2) [12]) was 3 and the Emax (human KOR (Gi2) [12]; HEK-293T) was 101%. The “FC vs wild type” value (human KOR (Gi2) [13]) was 17, the Emax (human KOR (Gi2) [13]; HEK-293T) was 116% and the “FC vs wild type” value (human KOR (Gi2) [14]) was 2. The Emax (human KOR (Gi2) [14]; HEK-293T) was 95.8%, the “FC vs wild type” value (human KOR (Gi2) [15]) was 100 and the Emax (human KOR (Gi2) [15]; HEK-293T) was 104%. The Emax (human KOR (Gi2) [16]) was 57.6%, the “FC vs wild type” value (human KOR (Gi2) [17]) was 2 and the Emax (human KOR (Gi2) [17]; HEK-293T) was 104%. For the same compound, the “FC vs wild type” value (human KOR (Gi2) [18]) was 110, the Emax (human KOR (Gi2) [18]; HEK-293T) was 107% and the “FC vs wild type” value (human KOR (Gi2) [19]) was 24. The Emax (human KOR (Gi2) [19]; HEK-293T) was 60%, the “FC vs wild type” value (human KOR (Gi2) [20]) was 18 and the Emax (human KOR (Gi2) [20]; HEK-293T) was 56.9%. The “FC vs wild type” value (human KOR (Gi2) [21]) was 178, the Emax (human KOR (Gi2) [21]; HEK-293T) was 77.2% and the “FC vs wild type” value (human KOR (Gz) [22]) was 69. The Emax (human KOR (Gz) [22]; HEK-293T) was 96.9%, the “FC vs wild type” value (human KOR (Gz) [23]) was 398 and the Emax (human KOR (Gz) [23]; HEK-293T) was 110%. For the same compound, the “FC vs wild type” value (human KOR (Gz) [24]) was 112, the Emax (human KOR (Gz) [24]; HEK-293T) was 99.2% and the Emax (human KOR (Gz) [25]) was 92.7%. For the same compound, the “FC vs wild type” value (human KOR (Gz) [26]) was 3, the “FC vs wild type” value (human KOR (Gz) [27]) was 479 and the Emax (human KOR (Gz) [27]; HEK-293T) was 103%. The “FC vs wild type” value (human KOR (Gz) [28]) was 1259, the Emax (human KOR (Gz) [28]; HEK-293T) was 81.8% and the “FC vs wild type” value (human KOR (Gz) [29]) was 1259. For the same compound, the Emax (human KOR (Gz) [29]; HEK-293T) was 112%, the “FC vs wild type” value (human KOR (Gz) [30]) was 13 and ~10 and the Emax (human KOR (Gz) [30]; HEK-293T) was 96%. The “FC vs wild type” value (human KOR (Gz) [31]) was 93, the Emax (human KOR (Gz) [31]; HEK-293T) was 98.3% and the “FC vs wild type” value (human KOR (Gz) [32]) was 9. For the same compound, the Emax (human KOR (Gz) [32]; HEK-293T) was 108%, the “FC vs wild type” value (human KOR (Gz) [33]) was 44 and the Emax (human KOR (Gz) [33]; HEK-293T) was 106%.
